# Data published in the supplement of paper PMC11208160.
# Test: recombinant UMI read abundance after kanamycin selection (control-corrected) (log10(CPM+1)); higher = more efficient recombination; extreme values may be limits of the assay; sequences stand for … in AGTGCAGAGAAAATCGGCCAGTTTTCTCTGCCTGCAGTCCGCATGCCGTGGGACCCCTTGGGTTCTAACCTGTTGCCTAGATTTATGCAGCGGACTGCCTTTCTCCCAAAGTGATAAACCGG…AGGTTGGTTTCACT; site = the 11-nt donor
# Outline: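 For the IS621 bridge recombinase, a pooled Escherichia coli screen tested donor and donor-binding-loop pairs. Cells received the pair library together with a target plasmid encoding a fixed target and T7-inducible recombinase, then went onto IPTG (0.07 mM) plus kanamycin or unselected plates in duplicate. After PCR across the donor–target junction and sequencing, recombinant UMI counts were normalized to CPM, averaged, and scaled by control-derived factors. Each value is given as log10(CPM+1).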
row,Sequence,recombinant UMI read abundance (log10)
1,AGGTTCCCATGGACCGGTTTTCCCGGTAATCCGTATTTGTG (site AGGTTCCCTCG),0.328
2,AGGTTCCCATGGACCGGTTTTCCCGGTAATCCGTATTTGTG (site AGGTTCCCTCT),0.0108
3,AGGTTCCCATGGACCGGTTTTCCCGGTAATCCGTATTTGTG (site AGGTTCCCTGA),0
4,AGGTTCCCATGGACCGGTTTTCCCGGTAATCCGTATTTGTG (site AGGTTCCCTTA),0
5,AGGTTCCCATGGACCGGTTTTCCCGGTAATCCGTATTTGTG (site AGGTTCGCTCA),0.0252
6,AGGTTCCCATGGACCGGTTTTCCCGGTAATCCGTATTTGTG (site AGGTTCTCTCA),0.634
7,AGGTTCCCATGGACCGGTTTTCCCGGTAATCCGTATTTGTG (site AGGTTGCCTCA),0.0234
8,AGGTTCCCATGGACCGGTTTTCCCGGTAATCCGTATTTGTG (site AGGTTTCCTCA),0.00972
9,AGGTTCCCATGGACCGGTTTTCCCGGTAATCCGTATTTGTG (site AGTTTCCCTCA),0.0518
10,AGGTTCCCATGGACCGGTTTTCCCGGTAATCCGTATTTGTG (site ATGTTCCCTCA),0.0101
11,AGGTTCCCATGGACCGGTTTTCCCGGTAATCCGTATTTGTG (site CGGTTCCCTCA),0.0101
12,AGGTTCCCATGGACCGGTTTTCCCGGTAATCCGTATTTGTG (site GGGTTCCCTCA),0.0086
13,AGGTTCCCATGGACCGGTTTTCCCGGTAATCCGTATTTGTG (site TGGTTCCCTCA),0.00656
14,AGTAAGGCATGGACCGGTTTTCCCGGTAATCCGTATTTGAT (site AGTAAGGCTAT),2.27
15,AGTAATTCATGGACCGGTTTTCCCGGTAATCCGTATTTGAC (site AGTAATTCTGT),0.17
16,AGTACACCATGGACCGGTTTTCCCGGTAATCCGTATTTGAG (site AGTACACCTCT),0.0245
17,AGTAGCCCATGGACCGGTTTTCCCGGTAATCCGTATTTGGA (site AGTAGCCCTTC),0.01
18,AGTCCATCATGGACCGGTTTTCCCGGTAATCCGTATTTGGG (site AGTCCATCTCC),0.00252
19,AGTCCCACATGGACCGGTTTTCCCGGTAATCCGTATTTGGA (site AGTCCCACTTC),0.296

row,Sequence,recombinant UMI read abundance (log10)
1,AGTCCTTCATGGACCGGTTTTCCCGGTAATCCGTATTTGGG (site AGTCCTTCTCC),0.0141
2,AGTCTAGCATGGACCGGTTTTCCCGGTAATCCGTATTTGTT (site AGACTAGCTAA),0.0182
3,AGTCTAGCATGGACCGGTTTTCCCGGTAATCCGTATTTGTT (site AGCCTAGCTAA),0.0159
4,AGTCTAGCATGGACCGGTTTTCCCGGTAATCCGTATTTGTT (site AGGCTAGCTAA),0.0213
5,AGTCTAGCATGGACCGGTTTTCCCGGTAATCCGTATTTGTT (site AGTCTAGCTAA),0.0147
6,AGTCTGACATGGACCGGTTTTCCCGGTAATCCGTATTTGGA (site AGTCTGACTTC),0.729
7,AGTCTTTCATGGACCGGTTTTCCCGGTAATCCGTATTTGAC (site AGACTTTCTGT),0
8,AGTCTTTCATGGACCGGTTTTCCCGGTAATCCGTATTTGAC (site AGCCTTTCTGT),0.743
9,AGTCTTTCATGGACCGGTTTTCCCGGTAATCCGTATTTGAC (site AGGCTTTCTGT),0
10,AGTCTTTCATGGACCGGTTTTCCCGGTAATCCGTATTTGAC (site AGTCTTTCTGT),0
11,AGTGACTCATGGACCGGTTTTCCCGGTAATCCGTATTTGCG (site AGTGACTCTCG),2.88
12,AGTGAGACATGGACCGGTTTTCCCGGTAATCCGTATTTGGG (site AGTGAGACTCC),0.00984
13,AGTGATCCATGGACCGGTTTTCCCGGTAATCCGTATTTGGT (site AGTGATCCTAC),0.0964
14,AGTGCGACATGGACCGGTTTTCCCGGTAATCCGTATTTGCA (site AGTGCGACTTG),1.38
15,AGTGGAACATGGACCGGTTTTCCCGGTAATCCGTATTTGTC (site AGTGGAACTGA),2.3
16,AGTGGCCCATGGACCGGTTTTCCCGGTAATCCGTATTTGCG (site AGTGGCCCTCG),0.0207
17,AGTGGCGCATGGACCGGTTTTCCCGGTAATCCGTATTTGTC (site AGTGGCGCTGA),2.86
18,AGTTACGCATGGACCGGTTTTCCCGGTAATCCGTATTTGAT (site AGTTACGCTAT),1.72
19,AGTTCCCCATGGACCGGTTTTCCCGGTAATCCGTATTTGTA (site AGTTCCCCTTA),0.124

row,Sequence,recombinant UMI read abundance (log10)
1,AGTTCCCCATGGACCGGTTTTCCCGGTAATCCGTATTTGTA (site CGTTCCCCTTA),0.025
2,AGTTCCCCATGGACCGGTTTTCCCGGTAATCCGTATTTGTA (site GGTTCCCCTTA),0.013
3,AGTTCCCCATGGACCGGTTTTCCCGGTAATCCGTATTTGTA (site TGTTCCCCTTA),0.0167
4,ATAAGAACATGGACCGGTTTTCCCGGTAATCCGTATTTGGG (site ATAAGAACTCC),0.884
5,ATAAGATCATGGACCGGTTTTCCCGGTAATCCGTATTTGAA (site ATAAGATCTTT),2.8
6,ATAAGGACATGGACCGGTTTTCCCGGTAATCCGTATTTGAC (site ATAAGGACTGT),2.34
7,ATAAGGACATGGACCGGTTTTCCCGGTAATCCGTATTTGAC (site ATAAGGCCTGT),0
8,ATAAGGACATGGACCGGTTTTCCCGGTAATCCGTATTTGAC (site ATAAGGGCTGT),2.31
9,ATAAGGACATGGACCGGTTTTCCCGGTAATCCGTATTTGAC (site ATAAGGTCTGT),1.93
10,ATAAGGCCATGGACCGGTTTTCCCGGTAATCCGTATTTGGC (site ATAAGGCCTGA),0
11,ATAAGGCCATGGACCGGTTTTCCCGGTAATCCGTATTTGGC (site ATAAGGCCTGC),2.31
12,ATAAGGCCATGGACCGGTTTTCCCGGTAATCCGTATTTGGC (site ATAAGGCCTGG),0
13,ATAAGGCCATGGACCGGTTTTCCCGGTAATCCGTATTTGGC (site ATAAGGCCTGT),0.68
14,ATACAAGCATGGACCGGTTTTCCCGGTAATCCGTATTTGAC (site ATACAAGCTGT),2.38
15,ATACCACCATGGACCGGTTTTCCCGGTAATCCGTATTTGGT (site ATACCACCTAC),0.0125
16,ATACCGTCATGGACCGGTTTTCCCGGTAATCCGTATTTGGG (site ATACCGTCTCC),0.0133
17,ATACTATCATGGACCGGTTTTCCCGGTAATCCGTATTTGTT (site ATACTATCTAA),2.54
18,ATAGCATCATGGACCGGTTTTCCCGGTAATCCGTATTTGCA (site ACAGTATCTTG),1.65
19,ATAGCATCATGGACCGGTTTTCCCGGTAATCCGTATTTGCA (site ATAGCATCTTG),2.9
